# Legend:
# WG37R mice [1] = test: 120-day chronic toxicity assessment in WG37R mice; type: in vivo; settings: 10 mg/kg/day IP daily for 120 days
# Protocol: The WG37R mice were randomly assigned to 2 groups: For the second set of the experiment, a total of 6 animals per group (3 male and 3 female) were used in the study. Group 3: Sham treatment 1 (1:20 DMSO/PBS) and Group 4: NS-1-2 (10 mg/kg body weight). According to requirement of acute toxicity study, 6-10 animals should be used to evaluate the effect of a substance. However, as the new analogues are structurally similar to Edaravone, having a single-dose safety profile of 450 mg/kg, the mortality of the Edaravone analogues at a dose of 10 mg/kg body weight/day was not expected. Considering the above facts, for the present acute study, the proposed minimum number of animals was 6 per group. Morphological alterations, histological changes, and mean body weight assessments for whole set of animals, for both the WG37R control groups (N=5; 1:20, DMSO:PBS) and WG37R treated groups (N=6; NS-1-2; 10 mg/kg bodyweight) were assessed during the 120-day chronic toxicity assessment, by giving daily of 120 IP injection to the mouse at 3 months of age. Only one male mice from group 3 (control) was terminated unexpectedly, and was likely due to an accidental error in injection (discussed with Central Animal Care Services, veterinarians and staff). IP injections may be difficult because of the aggressiveness of mice (particularly the male mice, during physical restraint). […]
# WG37R mice [2] = test: 14-day acute toxicity assessment in WG37R mice; type: in vivo; settings: for H&E histology compared with control mice / signs of overt degeneration, inflammation and necrosis in examined tissues: single IP 10 mg/kg
# Protocol: The WG37R mice were randomly assigned to 2 groups: For the first set of the experiment, a total of 6 animals per group (3 male and 3 female) were used in the study. Group 1: Sham treatment 1 (1:20 DMSO/PBS) and Group 2: NS-1-2 (10 mg/kg body weight). According to requirement of acute toxicity study, 6-10 animals should be used to evaluate the effect of a substance. However, as the new analogues are structurally similar to Edaravone, having a single-dose safety profile of 450 mg/kg, the mortality of the Edaravone analogues at a dose of 10 mg/kg body weight/day was not expected. Considering the above facts, for the present acute study, the minimum number of animals was 6 per group. Morphological alterations, histological changes, and mean body weight assessments for whole set of animals, for both the WG37R control groups (N=6; 1:20, DMSO:PBS) and WG37R treated groups (N=6; NS-1-2; 10 mg/kg bodyweight) were assessed during the 14-day acute toxicity assessment, by giving a single IP injection to the mouse at 2 months of age (see further detail in (iia) below.
# For intraperitoneal administration, about 1:20 of DMSO/PBS, at a pH of about 7.4 was used for the suspension of NS-1-2 test substance. Edaravone was dissolved in about 1 mL of about 1 mol/L NaOH and adjusted to about pH 7.4 by adding about 1 mol/L HCl, and then diluted in saline. A volume of about 400 μl from final reconstituted solution was aliquoted and stored in about −80° C., until further use. For acute toxicity experiments, a single dose of about 10 mg/kg bodyweight of NS-1-2 was intraperitoneally injected to group 2, WG37R mice model at the age of 2 months. The WG37R mice in the group 1 received an injection of equal volume of (about 1:20; DMSO:PBS) instead. For chronic toxicity experiments, 120 daily doses of about 10 mg/kg bodyweight of NS-1-2 was intraperitoneally injected to group 4, WG37R mice model at the age of 3 months for 120 days, until the age of 7 months. The WG37R mice in the group 3 received an injection of equal volume of (about 1:20; DMSO:PBS) instead.
# Wild type (WT) G37R mice received a single dose (about 0.2 mls) IP injection of Sham suspended in (about 1:20; DMSO:PBS) and a single dose of about 10 mg/kg bodyweight (about 0.2 mls) IP injection of NS-1-2 suspended in about 1:20; DMSO:PBS at the age of 2 months. […] At the experimental endpoint, the mice were first deeply anesthetized with a mixture of about 20% v/v isoflurane/propylene glycol (about 1 ml of the mixture per about 500 ml of bell jar space, University of Manitoba animal care SOP A003) and than exsanguination was done by cutting the animal's right atrium followed by an intracardiac perfusion with about 0.9% NaCl. During perfusion, syringe barrel nosecone was used for prolonged anesthesia. Cardiac perfusion was followed by perfusion with about 4% paraformaldehyde for histology (H&E staining) analysis. Mouse tissues (brain, heart, spinal cord, kidney, liver, muscle, lung, and spleen) were fixed for about 48 h in about 4% buffered formalin at about 4° C. Only the spinal cord was processed after about 24 h to remove the spine and again fixed for about another 24 h. Samples were processed and embedded into paraffin blocks at the Histomorphology and Ultrastructural Imaging platform, Dept. of Human Anatomy and Cell Science, University of Manitoba. Briefly, the embedded tissues were cut into about 5 μm thickness, mounted on super frost plus slides and dried overnight at about 37° C. Slides were deparaffinized in about 2 changes of xylene and rehydrated in descending alcohols (about 2 changes of about 100% Ethanol and about 2 changes of about 95% Ethanol) and tap water. Slides were stained with Harris Haematoxylin followed by differentiation with acid alcohol. After rinsing in tap water, saturated lithium carbonate was used for Bluing the nucleus. After that the slides were rinsed in tap water and counter stained with eosin. […]
# [3] = single 10 mg/kg IP dose, 2 weeks monitoring
compound,measurement,setting,value
"Cc1cc(B2OC(C)(C)C(C)(C)O2)n(-c2ccccc2)n1 [NS-1-2, 3-methyl-5-(4,4,5,5-tetramethyl-1,3,2-dioxaborolan-2-yl)-1-phenyl1H-pyrazole]",clinical signs of toxicity compared to vehicle-treated mice,WG37R mice [1],no clinical signs of toxicity
same,tolerability,WG37R mice [1],seemingly tolerated
same,H&E histology compared with control mice,"WG37R mice [2]; G37RWT female mice, FIG. 13",no significant differences with respect to control mice
same,"signs of overt degeneration, inflammation and necrosis in examined tissues","WG37R mice [2]; G37RWT female mice, FIG. 13","no signs of overt degeneration, inflammation and necrosis"
same,H&E histology compared with control mice,"WG37R mice [2]; G37RWT male mice, FIG. 12",no significant differences with respect to control mice
same,"signs of overt degeneration, inflammation and necrosis in examined tissues","WG37R mice [2]; G37RWT male mice, FIG. 12","no signs of overt degeneration, inflammation and necrosis"
same,changes in body weight,"WG37R mice [2]; acute treatment, 10 mg/kg, FIG. 10",did not induce any abnormal changes in the body weight
same,daily general observations,WG37R mice [2]; [3],"normal appearance, normal general behaviour with well-conditioned body condition"
same,treatment-related deaths,WG37R mice [2]; [3],No acute treatment-related deaths

# — US20260232706A1, “1H-PYRAZOLE ANALOGUES AND METHODS AND USES THEREOF” (University of Manitoba, priority 2022, published 2026)
